Assay results as given in ChEMBL document CHEMBL5465560, “Selectivity Literature for EUbOPEN Chemogenomic Library” (2024).
Each block holds one molecule with its values, some of them ahead of it.

Experiments:
[1] = biological target: Tyrosine-protein kinase Blk (Homo sapiens) (UniProt P51451); conditions: at 10 µM
[2] = biological target: Macrophage colony-stimulating factor 1 receptor (Homo sapiens) (UniProt P07333); test: Selectivity interaction (Ambit KINOMEscan and KiNATiv profiling in Jurkat cells) EUB0000090b CSF1R; format: cell-based; conditions: at 1 µM
[3] = biological target: Glycogen synthase kinase-3 alpha (Homo sapiens, UniProt P49840); test: Selectivity interaction (SelectScreen profiling (Invitrogen)) EUB0000607a GSK3A; conditions: at 2 µM
[4] = biological target: Mitogen-activated protein kinase 8 (Homo sapiens, UniProt P45983); test: Selectivity interaction (SelectScreen profiling (Invitrogen)) EUB0000607a MAPK8; conditions: at 2 µM
[5] = biological target: T1, Protein kinase C iota type (Homo sapiens) (UniProt P41743); test: Selectivity interaction (KinomeScan (DiscoverX)) EUB0000607a PRKCI; conditions: at 10 µM
T1 sequence (whole entry): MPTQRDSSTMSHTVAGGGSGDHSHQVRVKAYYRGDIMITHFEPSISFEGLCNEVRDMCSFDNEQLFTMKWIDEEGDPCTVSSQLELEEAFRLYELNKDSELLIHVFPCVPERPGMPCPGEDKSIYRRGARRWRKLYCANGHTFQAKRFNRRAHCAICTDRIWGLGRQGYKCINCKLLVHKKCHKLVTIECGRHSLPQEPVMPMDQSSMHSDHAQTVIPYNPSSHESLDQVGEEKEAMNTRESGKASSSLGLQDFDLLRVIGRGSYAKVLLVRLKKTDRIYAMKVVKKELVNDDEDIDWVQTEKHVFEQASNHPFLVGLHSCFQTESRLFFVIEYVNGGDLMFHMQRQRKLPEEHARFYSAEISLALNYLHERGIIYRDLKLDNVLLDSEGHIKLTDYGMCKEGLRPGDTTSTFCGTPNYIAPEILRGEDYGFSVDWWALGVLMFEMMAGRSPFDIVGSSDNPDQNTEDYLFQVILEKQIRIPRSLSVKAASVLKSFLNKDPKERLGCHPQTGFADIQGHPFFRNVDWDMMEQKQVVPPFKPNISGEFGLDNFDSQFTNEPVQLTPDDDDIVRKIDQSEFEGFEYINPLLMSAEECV

[6] = biological target: Tyrosine-protein kinase Fgr (Homo sapiens) (UniProt P09769); test: Selectivity interaction (KinomeScan (DiscoverX)) EUB0000045b FGR
[7] = biological target: T2, Ephrin type-B receptor 4 (Homo sapiens) (UniProt P54760); test: Selectivity interaction (Upstate Kinase Profiler service (Millipore)) EUB0000056c EPHB4; conditions: at 1 µM
T2 sequence (whole entry): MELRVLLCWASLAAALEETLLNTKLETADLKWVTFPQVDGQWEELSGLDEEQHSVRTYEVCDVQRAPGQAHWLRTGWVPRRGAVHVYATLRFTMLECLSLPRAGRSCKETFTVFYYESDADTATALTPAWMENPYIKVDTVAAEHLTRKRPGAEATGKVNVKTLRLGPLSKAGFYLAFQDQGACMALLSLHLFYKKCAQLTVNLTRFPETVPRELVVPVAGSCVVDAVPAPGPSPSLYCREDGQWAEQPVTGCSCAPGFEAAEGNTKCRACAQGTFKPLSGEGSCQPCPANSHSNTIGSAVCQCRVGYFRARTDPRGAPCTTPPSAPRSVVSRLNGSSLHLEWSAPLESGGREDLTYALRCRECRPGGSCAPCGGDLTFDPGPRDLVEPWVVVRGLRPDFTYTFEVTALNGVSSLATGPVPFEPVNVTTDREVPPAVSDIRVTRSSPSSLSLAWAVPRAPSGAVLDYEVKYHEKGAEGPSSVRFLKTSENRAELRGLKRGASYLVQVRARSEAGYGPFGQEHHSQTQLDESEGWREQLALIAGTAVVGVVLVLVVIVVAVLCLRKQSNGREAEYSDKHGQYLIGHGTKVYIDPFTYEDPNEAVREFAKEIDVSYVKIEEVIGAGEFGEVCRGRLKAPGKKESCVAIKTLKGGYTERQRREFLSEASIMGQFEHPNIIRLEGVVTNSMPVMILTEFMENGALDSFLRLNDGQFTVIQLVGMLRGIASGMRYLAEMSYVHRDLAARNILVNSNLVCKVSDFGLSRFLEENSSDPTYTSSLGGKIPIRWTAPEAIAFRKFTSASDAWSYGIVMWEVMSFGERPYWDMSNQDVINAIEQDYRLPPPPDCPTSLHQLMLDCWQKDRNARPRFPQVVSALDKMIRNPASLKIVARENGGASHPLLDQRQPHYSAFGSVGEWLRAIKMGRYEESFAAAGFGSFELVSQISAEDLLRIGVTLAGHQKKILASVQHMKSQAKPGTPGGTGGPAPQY

[8] = biological target: Mitogen-activated protein kinase 14 (Homo sapiens, UniProt Q16539); test: Selectivity interaction (ActivX KiNativ screen (kinase selectivity in THP-1 cell lysates)) EUB0000639a MAPK14; format: subcellular; conditions: lysate
[9] = biological target: T3, Tyrosine-protein kinase TXK (Homo sapiens) (UniProt P42681); test: Selectivity interaction (Kinase panel (Invitrogen)) EUB0000639a TXK; conditions: at 200 nM
T3 sequence (whole entry): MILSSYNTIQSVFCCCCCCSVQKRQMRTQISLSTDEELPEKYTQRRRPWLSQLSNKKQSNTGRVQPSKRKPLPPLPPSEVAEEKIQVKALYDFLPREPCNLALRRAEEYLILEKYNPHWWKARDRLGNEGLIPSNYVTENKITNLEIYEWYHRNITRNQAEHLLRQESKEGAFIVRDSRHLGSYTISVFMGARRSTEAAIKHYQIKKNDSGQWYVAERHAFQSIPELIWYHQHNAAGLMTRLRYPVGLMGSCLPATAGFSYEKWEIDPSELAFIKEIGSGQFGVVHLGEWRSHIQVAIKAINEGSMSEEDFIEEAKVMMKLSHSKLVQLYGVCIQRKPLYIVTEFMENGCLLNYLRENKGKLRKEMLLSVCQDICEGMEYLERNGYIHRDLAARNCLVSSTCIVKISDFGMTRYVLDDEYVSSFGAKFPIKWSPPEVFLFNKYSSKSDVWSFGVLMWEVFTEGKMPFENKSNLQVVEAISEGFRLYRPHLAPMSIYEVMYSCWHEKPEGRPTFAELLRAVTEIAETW

[10] = biological target: Calcium/calmodulin-dependent protein kinase type 1 (Homo sapiens) (UniProt Q14012); test: Selectivity interaction (ActivX KiNativ screen (kinase selectivity in THP-1 cell lysates)) EUB0000639a CAMK1; format: subcellular; conditions: lysate, at 0.01 µM
[11] = biological target: Cyclin-dependent kinase 4/cyclin D1 (Homo sapiens) (UniProt P11802+P24385); test: (§1) Selectivity interaction (ProQinase) EUB0000171b CDK4; format: protein-complex assay
[12] = biological target: CDK4/Cyclin D3 (Homo sapiens) (UniProt P11802+P30281); test: as §1; format: protein-complex assay

Mitogen-activated protein kinase 14, sequence (Q16539 whole entry): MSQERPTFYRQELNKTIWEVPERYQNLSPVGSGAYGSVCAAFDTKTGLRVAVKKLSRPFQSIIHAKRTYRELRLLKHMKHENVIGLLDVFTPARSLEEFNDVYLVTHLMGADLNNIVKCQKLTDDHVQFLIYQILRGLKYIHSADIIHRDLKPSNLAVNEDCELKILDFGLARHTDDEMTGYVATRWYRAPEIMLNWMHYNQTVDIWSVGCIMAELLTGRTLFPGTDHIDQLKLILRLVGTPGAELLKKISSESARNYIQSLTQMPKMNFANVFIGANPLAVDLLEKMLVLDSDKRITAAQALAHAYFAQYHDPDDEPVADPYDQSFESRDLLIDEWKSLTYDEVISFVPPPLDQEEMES
Tyrosine-protein kinase Fgr (Homo sapiens), sequence (P09769 2-529 limits assumed): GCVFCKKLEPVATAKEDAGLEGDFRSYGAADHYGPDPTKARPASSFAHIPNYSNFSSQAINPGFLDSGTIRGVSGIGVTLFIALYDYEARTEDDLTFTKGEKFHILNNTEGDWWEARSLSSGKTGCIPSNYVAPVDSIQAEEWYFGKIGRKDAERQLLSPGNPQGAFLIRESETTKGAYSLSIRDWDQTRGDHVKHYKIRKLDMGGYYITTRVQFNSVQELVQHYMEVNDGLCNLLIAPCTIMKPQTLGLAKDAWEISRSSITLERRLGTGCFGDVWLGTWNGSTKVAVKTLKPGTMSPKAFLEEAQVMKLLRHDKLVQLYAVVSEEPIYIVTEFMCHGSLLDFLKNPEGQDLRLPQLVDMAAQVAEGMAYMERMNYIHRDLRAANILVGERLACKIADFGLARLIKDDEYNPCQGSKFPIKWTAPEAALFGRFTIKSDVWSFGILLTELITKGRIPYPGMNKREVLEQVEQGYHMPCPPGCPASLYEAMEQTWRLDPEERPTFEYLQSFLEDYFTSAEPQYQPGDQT
Glycogen synthase kinase-3 alpha, sequence (P49840 2-483 limits assumed): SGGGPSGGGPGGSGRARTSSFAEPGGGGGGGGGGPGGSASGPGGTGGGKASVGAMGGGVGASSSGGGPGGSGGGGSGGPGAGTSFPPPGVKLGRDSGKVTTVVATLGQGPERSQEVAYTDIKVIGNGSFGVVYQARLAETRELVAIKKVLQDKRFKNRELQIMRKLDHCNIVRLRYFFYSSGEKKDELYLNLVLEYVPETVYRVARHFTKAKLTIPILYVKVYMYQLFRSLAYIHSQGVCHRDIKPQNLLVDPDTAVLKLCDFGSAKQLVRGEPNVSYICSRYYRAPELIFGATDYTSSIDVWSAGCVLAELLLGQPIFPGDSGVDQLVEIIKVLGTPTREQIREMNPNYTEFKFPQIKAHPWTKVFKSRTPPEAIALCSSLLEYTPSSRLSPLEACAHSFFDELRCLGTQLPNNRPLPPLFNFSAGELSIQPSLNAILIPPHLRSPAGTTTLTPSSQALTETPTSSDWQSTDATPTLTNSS
Calcium/calmodulin-dependent protein kinase type 1 (Homo sapiens), sequence (Q14012 whole entry, looked up): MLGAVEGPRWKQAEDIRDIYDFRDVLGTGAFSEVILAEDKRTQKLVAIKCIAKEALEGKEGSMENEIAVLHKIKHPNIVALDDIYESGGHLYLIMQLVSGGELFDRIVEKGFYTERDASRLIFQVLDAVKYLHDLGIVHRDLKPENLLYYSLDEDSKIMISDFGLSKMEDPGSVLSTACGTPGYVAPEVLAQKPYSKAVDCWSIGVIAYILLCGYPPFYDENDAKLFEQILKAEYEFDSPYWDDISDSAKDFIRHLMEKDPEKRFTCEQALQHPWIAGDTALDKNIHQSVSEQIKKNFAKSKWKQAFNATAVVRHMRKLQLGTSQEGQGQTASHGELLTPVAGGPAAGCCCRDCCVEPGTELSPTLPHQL
Tyrosine-protein kinase Blk (Homo sapiens), sequence (P51451 2-505 limits assumed): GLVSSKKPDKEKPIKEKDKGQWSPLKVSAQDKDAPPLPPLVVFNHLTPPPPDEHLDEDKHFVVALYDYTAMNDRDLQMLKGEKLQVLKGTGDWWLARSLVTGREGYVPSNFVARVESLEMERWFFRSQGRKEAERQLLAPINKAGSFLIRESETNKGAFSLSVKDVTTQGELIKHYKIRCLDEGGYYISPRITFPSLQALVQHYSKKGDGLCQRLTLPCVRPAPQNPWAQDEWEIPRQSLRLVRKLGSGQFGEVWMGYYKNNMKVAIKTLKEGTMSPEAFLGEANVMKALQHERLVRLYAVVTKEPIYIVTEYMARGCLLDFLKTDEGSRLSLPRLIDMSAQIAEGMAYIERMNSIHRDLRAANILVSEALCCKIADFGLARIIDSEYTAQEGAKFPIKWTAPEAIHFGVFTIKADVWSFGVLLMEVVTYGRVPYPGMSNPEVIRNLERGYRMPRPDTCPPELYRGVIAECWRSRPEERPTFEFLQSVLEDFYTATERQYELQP
Macrophage colony-stimulating factor 1 receptor (Homo sapiens), sequence (P07333 whole entry): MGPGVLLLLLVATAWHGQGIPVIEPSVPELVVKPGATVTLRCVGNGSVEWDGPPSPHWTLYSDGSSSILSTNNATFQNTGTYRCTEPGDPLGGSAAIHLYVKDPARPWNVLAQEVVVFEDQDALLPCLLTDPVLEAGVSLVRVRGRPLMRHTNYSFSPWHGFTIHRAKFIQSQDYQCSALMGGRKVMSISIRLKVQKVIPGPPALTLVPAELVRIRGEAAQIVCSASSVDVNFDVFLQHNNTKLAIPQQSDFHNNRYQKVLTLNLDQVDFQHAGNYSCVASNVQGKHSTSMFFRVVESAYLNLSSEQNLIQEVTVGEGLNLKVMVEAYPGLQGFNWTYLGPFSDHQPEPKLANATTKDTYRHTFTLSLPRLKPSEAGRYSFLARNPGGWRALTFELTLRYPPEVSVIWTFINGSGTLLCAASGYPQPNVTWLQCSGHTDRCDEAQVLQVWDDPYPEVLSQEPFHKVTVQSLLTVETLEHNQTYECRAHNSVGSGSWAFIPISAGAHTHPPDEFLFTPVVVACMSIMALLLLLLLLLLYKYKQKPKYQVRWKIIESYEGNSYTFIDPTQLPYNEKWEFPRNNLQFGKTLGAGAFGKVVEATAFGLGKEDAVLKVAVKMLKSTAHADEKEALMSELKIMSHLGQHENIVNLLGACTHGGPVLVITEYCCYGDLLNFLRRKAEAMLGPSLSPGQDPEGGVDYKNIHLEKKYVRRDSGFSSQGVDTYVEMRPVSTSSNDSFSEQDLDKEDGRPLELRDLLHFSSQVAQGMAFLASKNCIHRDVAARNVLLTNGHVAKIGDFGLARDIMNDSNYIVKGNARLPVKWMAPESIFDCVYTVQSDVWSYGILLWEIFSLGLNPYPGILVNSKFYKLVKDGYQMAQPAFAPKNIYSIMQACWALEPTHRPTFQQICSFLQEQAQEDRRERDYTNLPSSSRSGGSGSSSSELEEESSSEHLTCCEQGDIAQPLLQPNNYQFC
Mitogen-activated protein kinase 8, sequence (P45983 whole entry): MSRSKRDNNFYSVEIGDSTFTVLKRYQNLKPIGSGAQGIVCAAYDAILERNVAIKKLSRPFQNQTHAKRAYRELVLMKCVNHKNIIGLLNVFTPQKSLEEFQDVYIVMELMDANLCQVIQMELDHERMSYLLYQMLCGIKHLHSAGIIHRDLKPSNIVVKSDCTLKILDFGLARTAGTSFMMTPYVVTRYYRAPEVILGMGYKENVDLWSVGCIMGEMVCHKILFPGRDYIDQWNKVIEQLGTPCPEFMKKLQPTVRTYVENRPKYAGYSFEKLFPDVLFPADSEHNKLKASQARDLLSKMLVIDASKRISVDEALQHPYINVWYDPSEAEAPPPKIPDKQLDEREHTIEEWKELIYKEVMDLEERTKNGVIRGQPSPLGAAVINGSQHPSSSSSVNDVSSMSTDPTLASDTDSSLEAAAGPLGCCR

Structure (SMILES): CCN(CC)CCCCNc1ncc2cc(-c3cc(OC)cc(OC)c3)c(NC(=O)NC(C)(C)C)nc2n1
- % of control [1]: 100%

Structure (SMILES): CN(C)C/C=C/C(=O)Nc1ccc(C(=O)N2CCCC(Nc3ncc(Cl)c(-c4c[nH]c5ccccc45)n3)C2)cc1 (centres undefined)
- % of control [2]: 90%

Structure (SMILES): CNC(=O)Nc1ccc(-c2nc(N3CC4CCC(C3)O4)c3cnn(C4CCC5(CC4)OCCO5)c3n2)cc1
- % of inhibition [3]: -1%
- % of inhibition [4]: 12%
- % of control [5]: 67%

Structure (SMILES): C=CC(=O)Nc1cc(-n2c(=O)ccc3cnc4ccc(-c5ccc(NS(C)(=O)=O)cc5)cc4c32)ccc1C
- % of control ([6]; at 1 µM): 72%
- % of control ([6]; at 10 µM): 79%

Structure (SMILES): C=CC(=O)Nc1cccc(C(=O)Nc2ccc(Nc3cc(-c4[nH]c(SC)nc4C)ccn3)cc2)c1
- % of control ([11]; at 1 µM): 94%
- % of control ([11]; at 5 µM): 76%
- % of control ([12]; at 1 µM): 92%
- % of control ([12]; at 5 µM): 83%

Now from value to molecule:

- % of inhibition [7]: -11%
Structure (SMILES): Cc1ccc(-c2ccc3c(ccc4sc5c(c43)NC[C@@H](C)NC5=O)n2)cn1

- % of inhibition ([8]; at 0.01 µM): 0.8%
- % of inhibition ([8]; at 0.04 µM): 1.1%
- % of inhibition ([8]; at 0.2 µM): 10.2%
- % of inhibition ([8]; at 1 µM): 10.6%
- % of inhibition ([8]; at 5 µM): 4.8%
- % of inhibition [9]: 9.25%
- % of inhibition [10]: 2.7%
Structure (SMILES): CC[C@@H]1[C@H](F)C(=O)N[C@@H]1COc1nccc2cc(C(N)=O)c(OC)cc12 [ZIMLOVISERTIB]
